From ChEMBL document CHEMBL1201862, “PubChem BioAssay data set” (2004)
Activity calls are given as the source filed them.

What was measured:
[1] = NIH3T3 cell viability loss – ATP luminescence, mouse fibroblasts, counter-screen, dose response (AID 2010); type: functional, cell-based;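 note: cells exposed to compound for about 90 hours before reading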
[2] = Luminescence Cell-Based Dose Retest to Confirm Inhibitors of Cancer Stem Cells. [Related pubchem assays (depositor defined):AID2717, AID2721]; type: functional; settings: Homo sapiens
[3] = Trypanosoma cruzi growth suppression in host cells – NIH3T3 host cells, beta-gal luminescence, confirmation (AID 2044); type: functional, cell-based;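 note: intracellular parasites grown in NIH/3T3 mouse fibroblasts as host cells; luminescent beta-galactosidase reporter signal from transgenic T. cruzi replicating inside host cells; inhibitors lower the luminescence signal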
Streptokinase A = target: T1, Streptokinase A (Streptococcus pyogenes serotype M1, UniProt P10520); experiment: viability-normalized secreted streptokinase activity reduction – plasminogen activation absorbance, OD405, dose response (AID 1914); type: functional, Streptococcus pyogenes M1 GAS;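 note: secreted streptokinase activity via plasminogen activation per viability signal from cell pellet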
T1 sequence (P10520 whole entry): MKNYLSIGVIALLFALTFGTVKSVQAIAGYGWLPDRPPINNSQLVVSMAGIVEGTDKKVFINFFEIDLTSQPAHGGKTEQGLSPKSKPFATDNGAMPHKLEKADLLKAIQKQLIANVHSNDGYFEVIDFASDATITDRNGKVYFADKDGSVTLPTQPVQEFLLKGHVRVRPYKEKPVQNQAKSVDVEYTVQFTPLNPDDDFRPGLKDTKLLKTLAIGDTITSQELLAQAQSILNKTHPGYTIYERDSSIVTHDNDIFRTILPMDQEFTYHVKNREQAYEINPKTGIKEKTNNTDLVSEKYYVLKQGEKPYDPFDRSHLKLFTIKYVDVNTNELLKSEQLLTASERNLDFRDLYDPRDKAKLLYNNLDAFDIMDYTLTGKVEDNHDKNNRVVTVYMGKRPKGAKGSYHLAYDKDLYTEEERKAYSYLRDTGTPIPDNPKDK

[4] = tested on: Streptococcus sp. 'group A'; experiment: Streptococcus pyogenes SK(-)GAS viability under kanamycin – luminescence, BacTiterGlo, confirmation, counter-screen for streptokinase expression inhibitor project, dose response (AID 1900); type: functional, organism-based
Streptococcus = experiment: GAS UMAA2166 growth inhibition – luminescence, BacTiterGlo, counter-screen for streptokinase expression inhibitor project, dose response (AID 1915); type: functional, organism-based;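 note: potency for reduction of bacterial viability or growth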
Cytochrome P450 1A2 = target: T2, Cytochrome P450 1A2 (Homo sapiens, UniProt P05177);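 note: PubChem cytochrome P450 panel assay, CYP1A2 panel member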
T2 sequence (P05177 whole entry): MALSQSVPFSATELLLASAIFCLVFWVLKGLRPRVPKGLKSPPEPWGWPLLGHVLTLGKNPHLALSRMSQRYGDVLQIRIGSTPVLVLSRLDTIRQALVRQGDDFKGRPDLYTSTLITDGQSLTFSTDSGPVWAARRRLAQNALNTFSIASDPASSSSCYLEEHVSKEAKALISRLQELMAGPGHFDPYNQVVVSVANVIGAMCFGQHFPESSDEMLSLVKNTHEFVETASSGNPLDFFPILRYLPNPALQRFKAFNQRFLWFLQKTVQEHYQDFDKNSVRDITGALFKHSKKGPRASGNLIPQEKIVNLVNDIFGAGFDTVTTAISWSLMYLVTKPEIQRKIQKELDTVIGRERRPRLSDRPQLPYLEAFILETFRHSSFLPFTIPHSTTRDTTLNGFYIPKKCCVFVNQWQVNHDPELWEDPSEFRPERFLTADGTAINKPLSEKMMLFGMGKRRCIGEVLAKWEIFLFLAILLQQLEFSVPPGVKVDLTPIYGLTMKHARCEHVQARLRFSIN

Cytochrome P450 2C9 = Cytochrome P450 2C9 (Homo sapiens, UniProt P11712)
Cytochrome P450 2C9, sequence (P11712 whole entry): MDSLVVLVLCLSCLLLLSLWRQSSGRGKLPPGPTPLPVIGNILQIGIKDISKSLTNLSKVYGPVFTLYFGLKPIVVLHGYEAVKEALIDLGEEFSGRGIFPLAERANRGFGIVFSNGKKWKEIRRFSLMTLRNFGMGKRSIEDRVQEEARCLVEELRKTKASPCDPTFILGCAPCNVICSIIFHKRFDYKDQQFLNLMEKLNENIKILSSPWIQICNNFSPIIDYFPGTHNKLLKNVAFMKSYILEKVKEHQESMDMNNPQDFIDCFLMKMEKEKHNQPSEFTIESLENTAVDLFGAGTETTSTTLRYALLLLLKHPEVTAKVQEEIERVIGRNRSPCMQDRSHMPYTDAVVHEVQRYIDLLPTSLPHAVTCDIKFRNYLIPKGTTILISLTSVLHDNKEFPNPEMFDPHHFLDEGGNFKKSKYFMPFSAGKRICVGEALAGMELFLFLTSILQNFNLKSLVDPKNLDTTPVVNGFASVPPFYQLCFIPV

Cytochrome P450 2C19 = Cytochrome P450 2C19 (Homo sapiens, UniProt P33261); experiment: Cytochrome panel assay with activity outcomes. Panel member name: p450-cyp2c19 Compounds with AC50 equal or less than 10 uM are considered active; type: functional; settings: read-out: AC50
Cytochrome P450 2C19, sequence (P33261 whole entry): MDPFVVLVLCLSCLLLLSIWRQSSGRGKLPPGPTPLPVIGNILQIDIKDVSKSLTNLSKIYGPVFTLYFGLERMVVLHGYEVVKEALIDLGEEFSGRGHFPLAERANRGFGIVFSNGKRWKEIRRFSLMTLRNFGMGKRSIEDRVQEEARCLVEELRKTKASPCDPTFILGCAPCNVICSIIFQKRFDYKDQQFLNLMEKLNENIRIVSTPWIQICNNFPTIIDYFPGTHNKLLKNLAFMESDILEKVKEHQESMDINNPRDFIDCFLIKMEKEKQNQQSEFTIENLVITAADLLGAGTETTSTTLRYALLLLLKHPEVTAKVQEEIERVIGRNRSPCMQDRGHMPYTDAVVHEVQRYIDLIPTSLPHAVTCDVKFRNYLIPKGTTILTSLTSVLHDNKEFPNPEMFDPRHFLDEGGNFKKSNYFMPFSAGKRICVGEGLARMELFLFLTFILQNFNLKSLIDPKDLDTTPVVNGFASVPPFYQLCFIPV

[5] = target: T3, Heat shock factor protein 1 (Mus musculus, UniProt P38532); experiment: decrease of HSF1-responsive luciferase luminescence – cell-based, NIH3T3, dose retest, confirmation (AID 2382); type: functional;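 note: NIH3T3 fibroblasts with HSF1-driven luciferase reporter stressed by proteasome inhibitor MG132; luminescence from HSF1-driven luciferase expression after 8 hours of MG132 stress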
T3 sequence (P38532 whole entry): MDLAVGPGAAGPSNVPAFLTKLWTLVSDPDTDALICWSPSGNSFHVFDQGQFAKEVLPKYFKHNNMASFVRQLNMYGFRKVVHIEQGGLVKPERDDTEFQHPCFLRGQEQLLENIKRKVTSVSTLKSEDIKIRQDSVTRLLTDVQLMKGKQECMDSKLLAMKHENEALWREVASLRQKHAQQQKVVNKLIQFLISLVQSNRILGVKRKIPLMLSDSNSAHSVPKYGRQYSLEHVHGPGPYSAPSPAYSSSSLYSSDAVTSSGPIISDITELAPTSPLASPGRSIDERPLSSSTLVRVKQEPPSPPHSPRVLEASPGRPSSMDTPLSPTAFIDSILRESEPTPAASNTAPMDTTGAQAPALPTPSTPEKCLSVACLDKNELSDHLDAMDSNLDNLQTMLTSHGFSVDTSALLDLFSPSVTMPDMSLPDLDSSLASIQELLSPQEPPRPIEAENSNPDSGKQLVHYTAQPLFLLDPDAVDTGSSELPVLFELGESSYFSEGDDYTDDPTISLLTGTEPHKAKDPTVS

H4 = experiment: Luminescence Cell-Based Dose Response HTS to Identify Activators of 5'UTR Stem-Loop Driven Prion Protein mRNA Translation in H4 Neuroglioblastoma Cells. [Related pubchem assays: 1829 (Project Summary), 1814 (Primary HTS)]; type: functional; settings: Homo sapiens
[6] = target: Polyadenylate-binding protein 1 (Homo sapiens, UniProt P11940); experiment: MLLE domain peptide-binding blockers, IC50 – biochemical, fluorescence polarization, FITC-PAM2 peptide, dose response (AID 602259); type: functional; settings: read-out: IC50_Mean
Polyadenylate-binding protein 1, sequence (P11940 whole entry, the tested form may be a part): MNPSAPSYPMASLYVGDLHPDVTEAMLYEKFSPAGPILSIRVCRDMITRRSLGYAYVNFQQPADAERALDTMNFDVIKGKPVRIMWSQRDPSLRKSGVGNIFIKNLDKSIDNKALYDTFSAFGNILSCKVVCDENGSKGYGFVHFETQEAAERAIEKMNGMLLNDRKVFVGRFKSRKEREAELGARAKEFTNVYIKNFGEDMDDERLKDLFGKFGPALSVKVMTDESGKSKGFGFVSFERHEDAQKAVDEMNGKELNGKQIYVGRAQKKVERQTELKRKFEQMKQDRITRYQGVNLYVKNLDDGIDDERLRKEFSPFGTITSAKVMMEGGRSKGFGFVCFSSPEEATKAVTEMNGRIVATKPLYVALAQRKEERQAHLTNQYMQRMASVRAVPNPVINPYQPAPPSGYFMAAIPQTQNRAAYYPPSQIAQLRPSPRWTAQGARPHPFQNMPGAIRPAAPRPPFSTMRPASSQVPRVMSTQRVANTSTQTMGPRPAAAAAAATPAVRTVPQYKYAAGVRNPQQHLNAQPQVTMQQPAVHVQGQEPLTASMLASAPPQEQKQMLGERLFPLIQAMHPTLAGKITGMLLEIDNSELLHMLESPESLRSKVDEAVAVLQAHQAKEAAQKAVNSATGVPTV

[7] = Luminescence Cell-Based Dose Response HTS to Identify Activators of Luciferase Translation or Activity in H4 […] Cells. [Related pubchem assays: 1829 (Project Summary), 1814 (Primary HTS)]; type: functional

For `FC(F)(F)c1cc(-c2ccc(Cl)cc2)nc(NCc2cccnc2)n1`, the EC50 [1] was > 60 µM (not active), the AC50 [2] was 7.33 µM (active) and the EC50 [3] was 1.01 µM (active).
In the case of `Cc1cc(C)cc(NC(S)=NCCSc2ccc(Cl)cc2)c1`, the EC50 (Streptokinase A) is reported as 15.9 µM (active), the EC50 [4] is reported as 11.8 µM (active) and the EC50 (Streptococcus) is reported as > 150 µM (not active).
For `COc1cc(O)c2c(O)c3c(c4c2c1[C@@]1(C4)C(C)=CCCC1(C)C)[C@H](O)[C@@]1(O)CC(O)=C(C(N)=O)C(=O)[C@]1(O)C3=O`, the AC50 (Cytochrome P450 1A2) was 3.16 µM (inconclusive) and the AC50 (Cytochrome P450 2C9) was 3.16 µM (inconclusive).
With `O=C1NCCN1Cc1cccc(Cl)c1` the AC50 (Cytochrome P450 2C9) was 2.24 µM (inconclusive) and the AC50 (Cytochrome P450 2C19) was 2.24 µM (inconclusive).
In the case of `CCOC(=O)C1(S(=O)(=O)c2ccccc2)CCN(Cc2ccccc2)CC1`, the AC50 (Cytochrome P450 2C9) is reported as 11.2 µM (inconclusive).
In the case of `COC(=O)[C@@H]1C[C@H]1[C@@H](NC(=O)c1ccccc1)c1ccccc1`, the AC50 (Cytochrome P450 2C9) is reported as 39.8 µM (inconclusive).
For `COc1ccc(C2c3ccsc3CCN2C(=O)C(C)(C)C)cc1` (centres undefined), the EC50 (Streptokinase A) was > 150 µM (not active), the EC50 [4] was > 150 µM (not active) and the EC50 (Streptococcus) was > 150 µM (not active).
For `O=c1c(Cl)c(NCc2ccccc2)cnn1C12CC3CC(CC(C3)C1)C2`, the AC50 [2] was 1.16 µM (active).
With `O=c1[nH]c2cc3c(cc2cc1CN(CCc1ccccc1)Cc1nnnn1CC1CCCO1)OCO3` (centres undefined) the EC50 (Streptokinase A) was > 150 µM (not active).
In the case of `CC(C)Sc1nc2sccc2c(=O)n1-c1ccccc1`, the EC50 [5] is reported as > 195 µM (not active).
With `C=CCn1c(CCCNC(=O)C(C)(C)C)nc2ccccc21` the EC50 [5] was > 195 µM (not active).
For `CCn1ccc(C(=O)NC2=C(C#N)CCC2)n1`, the AC50 (Cytochrome P450 2C9) was 14.1 µM (inconclusive).
With `CC(=O)c1ccc(-n2nnnc2SCC(=O)Nc2cccc(NC(=O)c3ccco3)c2)cc1` the AC50 (Cytochrome P450 2C9) was 7.08 µM (inconclusive).
In the case of `C[C@](N)(COP(=O)(O)O)C(=O)O`, the AC50 (Cytochrome P450 1A2) is reported as 31.6 µM (inconclusive) and the AC50 (Cytochrome P450 2C19) is reported as 25.1 µM (inconclusive).
For `CN(C)Cc1nc2ccccc2c(=O)n1Cc1nc(-c2cc3ccccc3o2)cs1`, the EC50 (Streptokinase A) was 104 µM (active), the EC50 [4] was 10.4 µM (active) and the EC50 [1] was > 30 µM (not active). The EC50 [3] was 2.57 µM (active) and the EC50 (Streptococcus) was > 150 µM (not active).
For `CCCOc1ccc(/C=N/Nc2cccc([N+](=O)[O-])c2)c(O)c1`, the AC50 [2] was 1.76 µM (active).
For `Cc1ccc(C(=O)N2CCCC(CCC(=O)NCc3ccccc3F)C2)cn1` (centres undefined), the EC50 (Streptokinase A) was > 150 µM (not active), the EC50 [4] was > 150 µM (not active) and the EC50 (Streptococcus) was > 150 µM (not active).
For `c1ccc(N2CCN(c3nc4cc5c(cc4s3)OCCO5)CC2)cc1`, the EC50 (H4) was 46 µM (inconclusive).
With `COc1ccc(NC(=O)Nc2ccc([N+](=O)[O-])cc2)cn1` the IC50 [6] was 42.1 µM (inactive).
In the case of `CC(=O)c1c(C)[nH]c(C(=O)Nc2nccs2)c1C`, the EC50 (H4) is reported as > 120 µM (not active) and the EC50 [7] is reported as > 120 µM (not active).
In the case of `O=S(=O)(O)c1cc(/N=N\c2cccc3ccccc23)c(O)c2ncccc12`, the AC50 (Cytochrome P450 1A2) is reported as 0.631 µM (inconclusive).
In the case of `O=C(Nc1cccc(NC(=O)c2cccnc2)c1)c1ccccc1`, the EC50 (Streptokinase A) is reported as > 150 µM (not active), the EC50 [4] is reported as > 150 µM (not active) and the EC50 (Streptococcus) is reported as > 150 µM (not active).
For `CCOC(=O)C1=C(O)C(Nc2nccs2)(C(F)(F)F)N=C1C` (centres undefined), the AC50 (Cytochrome P450 2C9) was 35.5 µM (inconclusive).
In the case of `Cc1cccc(-c2nnc(SCc3ccccc3)o2)c1`, the AC50 (Cytochrome P450 2C9) is reported as 39.8 µM (inconclusive).
With `O=C(Nc1ccccc1)Nc1ccc(-n2ccc(C(F)(F)F)n2)cc1` the EC50 (H4) was > 120 µM (not active) and the EC50 [7] was 0.648 µM (active).
